In US10952999B2, “Inhibitor of cyclin-dependent kinase CDK9” (GENFLEET THERAPEUTICS (SHANGHAI) INC., priority 2017, dated 2021):

Assays:
Type in all cases: cell-based
[1] = tested on: acute promyelocytic leukemia cell line NB-4; experiment: Effect on apoptosis, Western Blot of PARP and Caspase 3 shear; conditions: NB-4, 0.01-0.1 μM, 24 hours
Excerpt: (§1) Western Blot was used to detect the effects of drugs in different concentrations on DNA repair enzyme polyadenylation diphosphate-ribose polymerase PARP and protein shear of cysteine-containing aspartate proteolytic enzyme Caspase 3 at different time intervals.

[2] = tested on: acute myelocytic leukemia cell line (AML) MV4-11; experiment: as above; conditions: MV4-11, 0.01-0.1 μM, 24 hours
Excerpt: as §1

[3] = tested on: human lung adenocarcinoma cell H1355; experiment: Cancer cell growth, Cell Titer-Glo cell viability assay, 72 hours; conditions: NCI-H1355, H1355, 72 hours
Excerpt: (§2) In the examples, we used acute myelocytic leukemia (AML) OCI-AML-3, acute promyelocytic leukemia cell line NB-4, MDS-RAEB (myelodysplastic syndrome-excess blasts type) cell line SKM-1, human leukemia cell Nomo-1, acute myeloid leukemia cell line MOLM14, acute myeloid leukemia cell line MOLM13, acute myeloid leukemia cell line MV4-11, acute myeloid leukemia cell line HL-60, acute myeloid leukemia cell line OCI-AML-2, histiocytic lymphoma U-937, acute B cell leukemia cell line MEC-1, acute B cell leukemia cell line MEC-2, acute megakaryoblastic leukemia CMK, hamster lung cell CHL, hamster ovary cell CHO, human non-small cell lung cancer cell H1975, human non-small cell lung cancer cell H358, human small cell lung cancer cell H209, human lung adenocarcinoma cell H1395, human non-small cell lung cancer cell PC-9, human lung cancer cell H3122, human non-small cell lung cancer cell H2122, human non-small cell lung cancer cell H1915, human lung adenocarcinoma cell H1355, human non-small cell lung cancer cell HCC827, human breast cancer cell MDA-MB-231, human breast cancer cell MDA-MB-468, human breast cancer cell MCF-7, human breast cancer cell T47D, human breast cancer cell SK-Br-3, the above cells were purchased from ATCC.
(§3) Cell Titer-Glo® (Promega, USA) chemical self-luminescence cell viability assay kit was used to detect the number of viable cells by quantitatively measuring ATP in living cells, according to which to calculate GI50 and IC50.

[4] = tested on: human breast cancer cell MCF-7; experiment: as above; conditions: MCF7, MCF-7, 72 hours
Excerpt: as §2, §3

[5] = tested on: hamster lung cell CHL; experiment: as above
Excerpt: as §2, §3

[6] = tested on: acute promyelocytic leukemia cell line NB-4; experiment: as above; conditions: NB4, 72 hours
Excerpt: as §2, §3

[7] = tested on: acute myelocytic leukemia (AML) OCI-AML-3; experiment: as above; conditions: Homo sapiens, OCI-AML-3; OCI-AML3, 72 hours
Excerpt: as §2, §3

[8] = tested on: acute myeloid leukemia cell line HL-60; experiment: as above; conditions: Homo sapiens; HL-60, 72 hours
Excerpt: as §2, §3

[9] = tested on: acute B cell leukemia cell line MEC-2; experiment: as above; conditions: MEC2; MEC-2, 72 hours
Excerpt: as §2, §3

[10] = tested on: human breast cancer cell MDA-MB-231; experiment: as above; conditions: MDA-MB-231, 72 hours
Excerpt: as §2, §3

[11] = tested on: acute myeloid leukemia cell line MV4-11; experiment: as above; conditions: Homo sapiens; MV4-11, 72 hours
Excerpt: as §2, §3

[12] = tested on: human small cell lung cancer cell H209; experiment: as above; conditions: NCI-H209, H209, 72 hours
Excerpt: as §2, §3

[13] = tested on: MDS-RAEB (myelodysplastic syndrome-excess blasts type) cell line SKM-1; experiment: as above; conditions: Homo sapiens; SKM-1, 72 hours
Excerpt: as §2, §3

[14] = tested on: human non-small cell lung cancer cell HCC827; experiment: as above; conditions: HCC827, 72 hours
Excerpt: as §2, §3

[15] = tested on: histiocytic lymphoma U-937; experiment: as above; conditions: Homo sapiens; U-937, 72 hours
Excerpt: as §2, §3

[16] = tested on: human lung cancer cell H3122; experiment: as above; conditions: NCI-H3122, H3122, 72 hours
Excerpt: as §2, §3

[17] = tested on: human breast cancer cell MDA-MB-468; experiment: as above; conditions: MDA-MB-468, 72 hours
Excerpt: as §2, §3

[18] = tested on: acute megakaryoblastic leukemia CMK; experiment: as above
Excerpt: as §2, §3

[19] = tested on: human non-small cell lung cancer cell H2122; experiment: as above; conditions: NCI-H2122, H2122, 72 hours
Excerpt: as §2, §3

[20] = tested on: hamster ovary cell CHO; experiment: as above
Excerpt: as §2, §3

[21] = tested on: human lung adenocarcinoma cell H1395; experiment: as above; conditions: NCI-H1395, H1395, 72 hours
Excerpt: as §2, §3

[22] = tested on: acute myeloid leukemia cell line MOLM14; experiment: as above; conditions: Homo sapiens; MOLM-14, 72 hours
Excerpt: as §2, §3

[23] = tested on: human non-small cell lung cancer cell H1975; experiment: as above; conditions: NCI-H1975, H1975, 72 hours
Excerpt: as §2, §3

[24] = tested on: human non-small cell lung cancer cell H358; experiment: as above; conditions: NCI-H358, H358, 72 hours
Excerpt: as §2, §3

[25] = tested on: human non-small cell lung cancer cell H1915; experiment: as above; conditions: NCI-H1915, H1915, 72 hours
Excerpt: as §2, §3

[26] = tested on: acute myeloid leukemia cell line MOLM13; experiment: as above; conditions: Homo sapiens; MOLM-13, 72 hours
Excerpt: as §2, §3

[27] = tested on: acute myeloid leukemia cell line OCI-AML-2; experiment: as above; conditions: Homo sapiens; OCI-AML2, 72 hours
Excerpt: as §2, §3

[28] = tested on: human breast cancer cell T47D; experiment: as above
Excerpt: as §2, §3

[29] = tested on: acute B cell leukemia cell line MEC-1; experiment: as above; conditions: Homo sapiens, MEC1; MEC-1, 72 hours
Excerpt: as §2, §3

[30] = tested on: human non-small cell lung cancer cell PC-9; experiment: as above; conditions: PC-9, 72 hours
Excerpt: as §2, §3

[31] = tested on: human leukemia cell Nomo-1; experiment: as above; conditions: Homo sapiens; Nomo-1, 72 hours
Excerpt: as §2, §3

[32] = tested on: human breast cancer cell SK-Br-3; experiment: as above; conditions: SK-Br-3, 72 hours
Excerpt: as §2, §3

IC50 [3]: 100 nM | IC50 [4]: 6 nM | GI50 ([5]; CHL, 72 hours): 1100 nM | GI50 [6]: 35 nM | GI50 [7]: 33 nM | GI50 [8]: 32 nM | GI50 [9]: 25 nM | IC50 [10]: 74 nM | GI50 [11]: 14 nM | IC50 [12]: 86 nM | GI50 [13]: 33 nM | IC50 [14]: 60 nM | GI50 [15]: 17 nM | IC50 [16]: 11 nM | IC50 [17]: 18 nM | GI50 [18]: 49 nM | IC50 [19]: 49 nM | IC50 [21]: 120 nM | GI50 [22]: 25 nM | IC50 [23]: 42 nM | IC50 [24]: 43 nM | IC50 [25]: 37 nM | GI50 [26]: 25 nM | GI50 [27]: 33 nM | IC50 [28]: 55 nM | GI50 [29]: 47 nM | IC50 [30]: 90 nM | GI50 [31]: 45 nM | IC50 [32]: 40 nM
Structure (SMILES): COC[C@@H](C)N[C@H]1CC[C@H](Nc2cc(-c3csc(NCC4(C#N)CCOCC4)n3)c(Cl)cn2)CC1 [Compound 1, 4-(((4-(5-chloro-2-(((1R,4r)-4-(((R)-1-methoxypropyl-2-yl)amino)cyclohexyl)amino)pyridin-4-yl)thiazol-2-yl)amino)methyl)tetrahydro-2H-pyran-4-carbonitrile]
apoptosis (shear of PARP or Caspase 3) [1]: could cause apoptosis | apoptosis (shear of PARP or Caspase 3) [2]: could cause apoptosis | inhibitory effect on normal cell CHL (in words) ([5]; CHL cells): no inhibitory effect | inhibitory effect on normal cell CHO (in words) ([20]; CHO cells): no inhibitory effect | GI50 ([20]; CHO, 72 hours): 1600 nM
